Values quoted from earlier work, collected in paper PMC9686322 (Frontiers in Neurology, 2022).

Columns and labels:
[1] = parameters: method as in PMID 15956161, PMID 10626097, PMID 21080186
[2] = parameters: method as in PMID 29847694

Question: With `N[C@@H](Cc1ccc(O)c(O)c1)C(=O)O` [levodopa] as the compound, how does the “Threshold plasma concentration to achieve sustained relief of PD symptoms” value [1] read?
Answer: about 1,000 ng/ml

Question: What about the Plasma half-life [2] of the same compound?
Answer: 1.5 to 2.5 h
